Measurements: patent publication US10752624B2, “Kinase inhibitors” (Origenis GmbH, priority 2012, dated 2020)

Columns and labels:
[1] = target: T1, SYK kinase (Homo sapiens, UniProt P43405); assay: SYK Assay (OMNIA Kinase Assay, SOX peptide fluorescence); assay type: biochemical; conditions: 1 mM ATP, 10 μM Omnia Peptide Substrate Tyr 7, 30° C., readings for 30 minutes; read-out: SYK Activities: IC50
T1 construct: purchased Invitrogen, Carlsbad
In short: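 The reaction was run at 30 °C with 1 mM ATP, 0.2 mM DTT and 10 μM Omnia Tyr 7 peptide (final) and started by adding SYK. Chelation-enhanced SOX fluorescence (ex 360/em 485 nm) was read every 30 s for 30 min. Reaction velocity versus inhibitor concentration was fitted sigmoidally for IC50.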

[2] = target: LRRK2 (Homo sapiens, UniProt Q5S007); assay: LRRK2-LRRK2 G2019S-Assay (LanthaScreen Eu Kinase Binding Assay); conditions: 5 nM LRRK2, 10 nM tracer 236, 2 nM EU-Anti-GST antibody, 1 h at RT; read-out: LRRK2 Activities: IC50
In short: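 Compound competition with Alexa Fluor 647 tracer 236 (10 nM) was measured after 1 h at room temperature, using 5 nM LRRK2 (wild type or mutant) bound to 2 nM Eu-anti-GST antibody. IC50 was derived from the acceptor/donor (665/615 nm) ratio using a variable-slope dose-response fit.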

LRRK2, sequence (Q5S007 970-2527 limits assumed): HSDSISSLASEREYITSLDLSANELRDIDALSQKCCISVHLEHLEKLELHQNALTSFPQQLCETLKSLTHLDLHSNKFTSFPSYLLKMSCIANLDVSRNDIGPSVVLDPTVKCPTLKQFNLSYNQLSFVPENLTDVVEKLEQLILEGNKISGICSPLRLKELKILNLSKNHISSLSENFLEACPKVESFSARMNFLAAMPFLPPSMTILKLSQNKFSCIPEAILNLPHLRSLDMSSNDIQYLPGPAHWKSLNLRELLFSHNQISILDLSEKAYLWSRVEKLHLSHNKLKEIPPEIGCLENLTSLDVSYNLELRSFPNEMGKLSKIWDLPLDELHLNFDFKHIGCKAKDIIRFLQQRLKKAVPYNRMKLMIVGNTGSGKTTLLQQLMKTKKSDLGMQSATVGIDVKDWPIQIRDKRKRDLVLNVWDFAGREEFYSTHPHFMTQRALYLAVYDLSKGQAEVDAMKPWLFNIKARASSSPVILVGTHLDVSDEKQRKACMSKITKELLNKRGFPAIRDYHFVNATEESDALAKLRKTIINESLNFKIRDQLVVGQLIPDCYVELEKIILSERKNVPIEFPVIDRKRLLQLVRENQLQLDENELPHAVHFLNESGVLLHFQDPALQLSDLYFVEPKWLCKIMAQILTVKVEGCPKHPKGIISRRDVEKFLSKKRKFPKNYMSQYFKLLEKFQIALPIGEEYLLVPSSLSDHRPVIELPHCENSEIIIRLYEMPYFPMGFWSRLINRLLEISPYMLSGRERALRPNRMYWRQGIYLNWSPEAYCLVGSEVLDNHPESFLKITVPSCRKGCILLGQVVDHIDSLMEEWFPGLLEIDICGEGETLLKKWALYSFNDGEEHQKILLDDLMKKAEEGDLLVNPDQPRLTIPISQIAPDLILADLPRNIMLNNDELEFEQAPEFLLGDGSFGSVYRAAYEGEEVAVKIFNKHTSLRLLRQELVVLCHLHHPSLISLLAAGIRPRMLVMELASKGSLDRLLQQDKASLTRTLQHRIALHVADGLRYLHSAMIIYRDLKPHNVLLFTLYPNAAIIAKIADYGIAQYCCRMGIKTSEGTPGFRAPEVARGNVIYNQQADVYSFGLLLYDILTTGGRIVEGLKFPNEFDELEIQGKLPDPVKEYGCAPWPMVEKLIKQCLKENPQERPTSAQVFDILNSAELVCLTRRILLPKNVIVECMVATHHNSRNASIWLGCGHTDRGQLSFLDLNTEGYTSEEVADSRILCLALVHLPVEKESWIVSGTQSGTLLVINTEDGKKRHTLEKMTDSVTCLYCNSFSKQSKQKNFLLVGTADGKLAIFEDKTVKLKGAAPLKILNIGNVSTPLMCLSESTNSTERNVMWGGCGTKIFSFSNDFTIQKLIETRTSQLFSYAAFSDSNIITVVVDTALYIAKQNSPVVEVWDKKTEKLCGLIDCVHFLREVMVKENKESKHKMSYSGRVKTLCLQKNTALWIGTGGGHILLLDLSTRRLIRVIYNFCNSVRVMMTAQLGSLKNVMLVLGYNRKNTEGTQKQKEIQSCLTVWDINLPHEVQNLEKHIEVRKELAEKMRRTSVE

IC50 [1] [nM] | IC50 [2] [nM] | SMILES
10 to 100 | 100 to 1000 | CS(=O)(=O)c1ccc2c(c1)nc(Nc1ccc(N3CCN(CCO)CC3)cc1)c1[nH]ncc12 [Example 303, 2-(4-(4-((7-(methylsulfonyl)-3H-pyrazolo[3,4-c]quinolin-4-yl)amino)phenyl)piperazin-1-yl)ethan-1-ol]
100 to 1000 | 100 to 1000 | COc1cccc2c1nc(Nc1cnn(C3CCOCC3)c1)c1[nH]ncc12 [Example 307, 6-methoxy-N-(1-(tetrahydro-2H-pyran-4-yl)-1H-pyrazol-4-yl)-3H-pyrazolo[3,4-c]quinolin-4-amine]
10 to 100 | < 10 | CS(=O)(=O)c1ccc2nc(Nc3ccc(N4CCN(CCO)CC4)cc3)c3[nH]ncc3c2c1 [Example 309, 2-(4-(4-((8-(methylsulfonyl)-3H-pyrazolo[3,4-c]quinolin-4-yl)amino)phenyl)piperazin-1-yl)ethan-1-ol]
100 to 1000 | 10 to 100 | COc1ccc2nc(Nc3cnn(CC(=O)N(C)C)c3)c3n[nH]cc3c2c1 [Example 311, 2-(4-((8-methoxy-2H-pyrazolo[3,4-c]quinolin-4-yl)amino)-1H-pyrazol-1-yl)-N,N-dimethylacetamide]
< 10 | 10 to 100 | COc1ccc2nc(Nc3cnn(C4CCNC4)c3)c3n[nH]cc3c2c1 (stereo not shown) [Example 312, 8-methoxy-N-(1-(pyrrolidin-3-yl)-1H-pyrazol-4-yl)-2H-pyrazolo[3,4-c]quinolin-4-amine]
100 to 1000 | 10 to 100 | COCC(COC)n1cc(Nc2nc3ccc(OC)cc3c3c[nH]nc23)cn1 [Example 313, N-(1-(1,3-dimethoxypropan-2-yl)-1H-pyrazol-4-yl)-8-methoxy-2H-pyrazolo[3,4-c]quinolin-4-amine]
10 to 100 | 10 to 100 | COc1ccc2nc(Nc3cnn(C4CCCOC4)c3)c3n[nH]cc3c2c1 (stereo not shown) [Example 314, 8-methoxy-N-(1-(tetrahydro-2H-pyran-3-yl)-1H-pyrazol-4-yl)-2H-pyrazolo[3,4-c]quinolin-4-amine]
10 to 100 | 10 to 100 | COC(C)(C)Cn1cc(Nc2nc3ccc(S(C)(=O)=O)cc3c3cn[nH]c23)cn1 [Example 315, N-(1-(2-methoxy-2-methylpropyl)-1H-pyrazol-4-yl)-8-(methylsulfonyl)-3H-pyrazolo[3,4-c]quinolin-4-amine]
10 to 100 | 10 to 100 | CS(=O)(=O)c1ccc2nc(Nc3ccc(N4CCC(O)CC4)cc3)c3[nH]ncc3c2c1 [Example 316, 1-(4-((8-(methylsulfonyl)-3H-pyrazolo[3,4-c]quinolin-4-yl)amino)phenyl)piperidin-4-ol]
100 to 1000 | 10 to 100 | COc1ccc2nc(Nc3cnn(C(C)C(C)C)c3)c3n[nH]cc3c2c1 (stereo not shown) [Example 321, 8-methoxy-N-(1-(3-methylbutan-2-yl)-1H-pyrazol-4-yl)-2H-pyrazolo[3,4-c]quinolin-4-amine]
10 to 100 | 10 to 100 | CS(=O)(=O)c1ccc2nc(Nc3cnn(C4CCCOC4)c3)c3n[nH]cc3c2c1 (stereo not shown) [Example 323, 8-(methylsulfonyl)-N-(1-(tetrahydro-2H-pyran-3-yl)-1H-pyrazol-4-yl)-2H-pyrazolo[3,4-c]quinolin-4-amine]
10 to 100 | < 10 | CC(C)C(C)n1cc(Nc2nc3ccc(S(C)(=O)=O)cc3c3c[nH]nc23)cn1 (stereo not shown) [Example 324, N-(1-(3-methylbutan-2-yl)-1H-pyrazol-4-yl)-8-(methylsulfonyl)-2H-pyrazolo[3,4-c]quinolin-4-amine]
< 10 | < 10 | CS(=O)(=O)c1ccc2nc(Nc3cnn(C4CCNC4)c3)c3n[nH]cc3c2c1 (stereo not shown) [Example 327, 8-(methylsulfonyl)-N-(1-(pyrrolidin-3-yl)-1H-pyrazol-4-yl)-2H-pyrazolo[3,4-c]quinolin-4-amine]
100 to 1000 | 10 to 100 | CN1C(=O)COc2ccc(Nc3nc4ccc(S(C)(=O)=O)cc4c4c[nH]nc34)cc21 [Example 328, 4-methyl-6-((8-(methylsulfonyl)-2H-pyrazolo[3,4-c]quinolin-4-yl)amino)-2H-benzo[b][1,4]oxazin-3(4H)-one]
10 to 100 | 100 to 1000 | CC(C)(O)Cn1cc(Nc2nc3cc(S(C)(=O)=O)ccc3c3cn[nH]c23)cn1 [Example 329, 2-methyl-1-(4-((7-(methylsulfonyl)-3H-pyrazolo[3,4-c]quinolin-4-yl)amino)-1H-pyrazol-1-yl)propan-2-ol]
100 to 1000 | 10 to 100 | CC(=O)Nc1cccc(Nc2nc3ccc(S(C)(=O)=O)cc3c3c[nH]nc23)c1 [Example 331, N-(3-((8-(methylsulfonyl)-2H-pyrazolo[3,4-c]quinolin-4-yl)amino)phenyl)acetamide]
10 to 100 | 10 to 100 | COc1ccc(Nc2nc3ccc(S(C)(=O)=O)cc3c3c[nH]nc23)cc1NC(C)=O [Example 332, N-(2-methoxy-5-((8-(methylsulfonyl)-2H-pyrazolo[3,4-c]quinolin-4-yl)amino)phenyl)acetamide]
100 to 1000 | 10 to 100 | CCc1cccc(Nc2nc3ccc(S(C)(=O)=O)cc3c3c[nH]nc23)c1 [Example 333, N-(3-ethylphenyl)-8-(methylsulfonyl)-2H-pyrazolo[3,4-c]quinolin-4-amine]
10 to 100 | 10 to 100 | CC(C(=O)O)n1cc(Nc2nc3ccc(S(C)(=O)=O)cc3c3c[nH]nc23)cn1 (stereo not shown) [Example 334, 2-(4-((8-(methylsulfonyl)-2H-pyrazolo[3,4-c]quinolin-4-yl)amino)-1H-pyrazol-1-yl)propanoic acid]
100 to 1000 | 10 to 100 | COc1cccc2nc(Nc3cnn(CC(=O)N(C)C)c3)c3[nH]ncc3c12 [Example 339, 2-(4-((9-methoxy-3H-pyrazolo[3,4-c]quinolin-4-yl)amino)-1H-pyrazol-1-yl)-N,N-dimethylacetamide]
100 to 1000 | < 10 | COCC(COC)n1cc(Nc2nc3cccc(OC)c3c3cn[nH]c23)cn1 [Example 340, N-(1-(1,3-dimethoxypropan-2-yl)-1H-pyrazol-4-yl)-9-methoxy-3H-pyrazolo[3,4-c]quinolin-4-amine]
< 10 | 10 to 100 | CS(=O)(=O)c1ccc2nc(Nc3ccc4c(c3)NC(=O)CS4)c3n[nH]cc3c2c1 [Example 344, 6-((8-(methylsulfonyl)-2H-pyrazolo[3,4-c]quinolin-4-yl)amino)-2H-benzo[b][1,4]thiazin-3(4H)-one]
10 to 100 | < 10 | Brc1ccc2c(c1)nc(Nc1cnn(C3CCOCC3)c1)c1n[nH]cc12 [Example 348, 7-bromo-N-(1-(tetrahydro-2H-pyran-4-yl)-1H-pyrazol-4-yl)-2H-pyrazolo[3,4-c]quinolin-4-amine]
< 10 | 10 to 100 | CS(=O)(=O)c1ccc2nc(Nc3ccc(O)cc3)c3n[nH]cc3c2c1 [Example 349, 4-((8-(methylsulfonyl)-2H-pyrazolo[3,4-c]quinolin-4-yl)amino)phenol]
10 to 100 | 10 to 100 | CC(=O)Nc1cc(Nc2nc3ccc(S(C)(=O)=O)cc3c3c[nH]nc23)ccc1N1CCN(C(C)=O)CC1 [Example 352, N-(2-(4-acetylpiperazin-1-yl)-5-((8-(methylsulfonyl)-2H-pyrazolo[3,4-c]quinolin-4-yl)amino)phenyl)acetamide]
100 to 1000 | < 10 | CO[C@H]1CCCC[C@H]1n1cc(Nc2nc3ccc(S(C)(=O)=O)cc3c3c[nH]nc23)cn1 [Example 353, N-(1-((1R,2S)-2-methoxycyclohexyl)-1H-pyrazol-4-yl)-8-(methylsulfonyl)-2H-pyrazolo[3,4-c]quinolin-4-amine]
